# In ChEMBL document CHEMBL1130914, “Thromboxane modulating agents. 4. Design and synthesis of 3-(2-[[(4-chlorophenyl)sulfonyl]-amino]ethyl)benzenepropanoic acid derivatives as potent thromboxane receptor antagonists” (Bioorg Med Chem Lett, 1998):
# System: Thromboxane A2 receptor (Canis lupus familiaris)
# Assay: Tested for peroral dose required to cause complete blockade of the response to the thromboxane receptor agonist U-46,619 (1 uM) for 48 hours
# Conditions: not given
row,Activity [mg/kg],Structure (SMILES)
1,1,O=C(O)CCc1cc(CCNS(=O)(=O)c2ccc(Cl)cc2)cc(Cc2ccc(F)cc2)c1

# System: Thromboxane A2 receptor (Canis lupus familiaris)
# Assay: Tested for the peroral dose required to maintain complete thromboxane receptor antagonism for > 12 hours.
# Conditions: not given
row,Activity [mg/kg],Structure (SMILES)
1,0.1,O=C(O)CCc1cc(CCNS(=O)(=O)c2ccc(Cl)cc2)cc(Cc2ccc(F)cc2)c1

# Molecular target: T1, Thromboxane A2 receptor (Rattus norvegicus, UniProt P34978)
# T1 sequence (P34978 whole entry): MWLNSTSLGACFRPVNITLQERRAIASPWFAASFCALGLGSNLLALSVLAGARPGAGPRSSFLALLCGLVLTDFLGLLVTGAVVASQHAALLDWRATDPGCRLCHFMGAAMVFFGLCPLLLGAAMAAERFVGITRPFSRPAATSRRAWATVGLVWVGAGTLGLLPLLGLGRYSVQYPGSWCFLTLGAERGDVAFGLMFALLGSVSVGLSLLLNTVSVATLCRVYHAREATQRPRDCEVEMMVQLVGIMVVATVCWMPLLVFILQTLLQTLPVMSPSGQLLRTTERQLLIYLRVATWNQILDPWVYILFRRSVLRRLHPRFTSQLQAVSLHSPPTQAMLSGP
# Assay: In vitro Thromboxane A2 (TXA2) receptor antagonism was tested by its ability to inhibit the contraction of rat aorta induced by the stable thromboxane agonist U-46,619
# Type: functional, tissue-based
# Conditions: read-out: pA2 (converted)
row,Structure (SMILES),Kb [nM]
1,CC(c1ccc(F)cc1)c1cc(CCNS(=O)(=O)c2ccc(Cl)cc2)cc(CCC(=O)O)c1 (stereo not drawn),0.00398
2,O=C(O)CCc1cc(CCNS(=O)(=O)c2ccc(Cl)cc2)cc(Cc2ccncc2)c1,0.00251
3,O=C(O)CCc1cc(CCNS(=O)(=O)c2ccc(Cl)cc2)cc(Cc2cccnc2)c1,0.398
4,O=C(O)CCc1cc(CCNS(=O)(=O)c2ccc(Cl)cc2)cc(Cc2ccc(F)cc2)c1,0.0251
5,CS(=O)(=O)c1ccc(C(=O)c2cc(CCNS(=O)(=O)c3ccc(Cl)cc3)cc(CCC(=O)O)c2)cc1,0.316
6,O=C(O)CCc1cc(CCNS(=O)(=O)c2ccc(Cl)cc2)cc(Cc2ccccc2)c1,0.0158
7,O=C(O)CCc1cccc(CCNS(=O)(=O)c2ccc(Cl)cc2)c1,2

# The next lines start with the values.
row,Kb [nM],Structure (SMILES)
1,0.1,O=C(O)CCc1cc(CCNS(=O)(=O)c2ccc(Cl)cc2)cc(C(=O)c2ccc(F)cc2)c1
2,0.0398,N#Cc1ccc(C(=O)c2cc(CCNS(=O)(=O)c3ccc(Cl)cc3)cc(CCC(=O)O)c2)cc1
3,0.2,O=C(O)CCc1cc(CCNS(=O)(=O)c2ccc(Cl)cc2)cc(C(O)c2ccc(F)cc2)c1 (stereo not drawn)
4,0.0631,CS(=O)(=O)c1ccc(Cc2cc(CCNS(=O)(=O)c3ccc(Cl)cc3)cc(CCC(=O)O)c2)cc1
5,0.0794,O=C(O)CCc1cc(CCNS(=O)(=O)c2ccc(Cl)cc2)cc(Cc2cccc(F)c2)c1
6,0.00398,COc1ccc(Cc2cc(CCNS(=O)(=O)c3ccc(Cl)cc3)cc(CCC(=O)O)c2)cc1
7,0.0631,COc1ccccc1Cc1cc(CCNS(=O)(=O)c2ccc(Cl)cc2)cc(CCC(=O)O)c1
8,0.0251,COc1ccc(C(=O)c2cc(CCNS(=O)(=O)c3ccc(Cl)cc3)cc(CCC(=O)O)c2)cc1

# Molecular target: T2, Thromboxane-A synthase (Homo sapiens, UniProt P24557)
# T2 sequence (P24557 whole entry): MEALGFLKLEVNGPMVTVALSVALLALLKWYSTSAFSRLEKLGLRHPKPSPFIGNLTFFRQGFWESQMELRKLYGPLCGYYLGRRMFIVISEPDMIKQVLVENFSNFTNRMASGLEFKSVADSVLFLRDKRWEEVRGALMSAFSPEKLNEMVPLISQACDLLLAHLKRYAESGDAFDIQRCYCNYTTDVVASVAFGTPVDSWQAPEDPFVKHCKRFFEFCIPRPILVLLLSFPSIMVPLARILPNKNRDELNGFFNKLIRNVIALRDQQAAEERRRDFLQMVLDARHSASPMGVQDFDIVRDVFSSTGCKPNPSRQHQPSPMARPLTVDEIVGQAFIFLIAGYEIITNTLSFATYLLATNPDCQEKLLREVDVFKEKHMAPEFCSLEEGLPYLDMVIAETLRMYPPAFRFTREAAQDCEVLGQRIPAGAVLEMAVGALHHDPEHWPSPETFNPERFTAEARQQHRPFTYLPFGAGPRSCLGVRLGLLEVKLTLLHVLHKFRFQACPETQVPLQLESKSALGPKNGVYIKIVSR
# Assay: Inhibitory activity against Thromboxane A2 synthase from human platelet microsomes.
# Conditions: not given
row,IC50 [nM],Structure (SMILES)
1,47,O=C(O)CCc1cc(CCNS(=O)(=O)c2ccc(Cl)cc2)cc(Cc2ccncc2)c1
